The assay has as its system BJAB (malignant human B-cell-line). Nature of the assay: BJAB cell proliferation. It counts as cell-based. Details: scale not given here. The source says: In certain embodiments, the therapeutic compound is one of the compounds of the compound table below. […] In certain embodiments, the therapeutic compound is a compound having an activity as “A,” “B” or “C” in the table below. In certain embodiments, the therapeutic compound is a compound having an activity as “A” or “B” in the table below. In certain embodiments, the therapeutic compound is a compound having an activity as “A” in the table below.
In certain embodiments, the therapeutic compound is one of the compounds of the compound table below, optionally provided as a pharmaceutically-acceptable salt or N-oxide, and/or a solvate or hydrate. […] In certain embodiments, the therapeutic compound is a compound having an activity as “A,” “B” or “C” in the table below. In certain embodiments, the therapeutic compound is a compound having an activity as “A” or “B” in the table below. In certain embodiments, the therapeutic compound is a compound having an activity as “A” in the table below.

Setting [1] is: BJAB cell proliferation, read-out: EC50.
[2] abbreviates: Homo sapiens, BJAB cell proliferation, read-out: EC50.
Setting [3] is: BJAB (malignant human B-cell-line) cell proliferation, EC50, read-out: BJAB.

Like-named read-outs stand apart in the source and are kept apart here.

For `Cc1nn(-c2nc(-c3ccc(Cl)c(Cl)c3)c(SC(C)C)s2)c(CO)c1-c1ccccc1` [Compound A88, (1-(4-(3,4-dichlorophenyl)-5-(isopropylthio)thiazol-2-yl)-3-methyl-4-phenyl-1H-pyrazol-5-yl)MeOH], under setting [1], the EC50 is more than 25 µM.

`Cc1nn(-c2nc(-c3ccc(Cl)c(Cl)c3)c(SC(C)C)s2)c(C(=O)O)c1Cc1ccccc1NS(=O)(=O)N(C)C` [Compound A122, 1-(4-(3,4-dichlorophenyl)-5-(isopropylthio)thiazol-2-yl)-4-(2-(N,N-dimethylsulfamoylamino)benzyl)-3-methyl-1H-pyrazole-5-carboxylic acid]: the EC50 under setting [1] lay within 10 to 25 µM.

As to `Cc1nn(-c2nc(-c3ccc(Cl)c(Cl)c3)c(SC(C)C)s2)c(C(=O)O)c1-c1cccc(F)c1` [Compound A151, 1-(4-(3,4-dichlorophenyl)-5-(isopropylthio)thiazol-2-yl)-4-(3-fluorophenyl)-3-methyl-1H-pyrazole-5-carboxylic acid], the EC50 entry (BJAB cell proliferation) was “A, B”.

Regarding `Cc1nn(-c2nc(-c3ccc(C#N)cc3)c(SC(C)C)s2)c(C(=O)O)c1-c1cccc(F)c1` [Compound A213, 1-(4-(4-cyanophenyl)-5-(isopropylthio)thiazol-2-yl)-4-(3-fluorophenyl)-3-methyl-1H-pyrazole-5-carboxylic acid], the EC50 result (BJAB cell proliferation) was “C-”.

For `COc1cc(Cl)cc(-c2c(C)nn(-c3nc(-c4ccc(C(F)(F)F)cc4)c(SC(C)C)s3)c2C(=O)O)c1` [Compound A222, 4-(3-chloro-5-methoxyphenyl)-1-(5-(isopropylthio)-4-(4-(trifluoromethyl)phenyl)thiazol-2-yl)-3-methyl-1H-pyrazole-5-carboxylic acid], under setting [2], the EC50 is less than 1 µM.

`Cc1nn(-c2nc(-c3ccc(OC(F)(F)F)cc3)c(SC(C)C)s2)c(C(=O)O)c1-c1cccc(F)c1` [Compound A223, 4-(3-fluorophenyl)-1-(5-(isopropylthio)-4-(4-(trifluoromethoxy)phenyl)thiazol-2-yl)-3-methyl-1H-pyrazole-5-carboxylic acid]: the EC50 under setting [2] is 1 to 5 µM.

For `Cc1cc(C(=O)O)n(-c2nc(-c3ccc(Cl)cc3OC3COC3)c(SC(C)C)s2)n1` [Compound B1, 1-(4-(4-chloro-2-(oxetan-3-yloxy)phenyl)-5-(isopropylthio)thiazol-2-yl)-3-methyl-1H-pyrazole-5-carboxylic acid], under setting [3], the EC50 is more than 40 µM.

As for `Cc1cc(C(=O)O)n(-c2nc(-c3ccc(Cl)c(OC4COC4)c3)c(SC(C)C)s2)n1` [Compound B2, 1-(4-(4-chloro-3-(oxetan-3-yloxy)phenyl)-5-(isopropylthio)thiazol-2-yl)-3-methyl-1H-pyrazole-5-carboxylic acid], the EC50 under setting [3] was more than 40 µM.

Take `Cc1nnc(-c2ccc(-c3nc(-n4nc(C)c(-c5cccc(F)c5)c4C(=O)O)sc3SC(C)C)cc2)o1` [Compound B3, 4-(3-fluorophenyl)-1-(5-(isopropylthio)-4-(4-(5-methyl-1,3,4-oxadiazol-2-yl)phenyl)thiazol-2-yl)-3-methyl-1H-pyrazole-5-carboxylic acid]: the EC50 under setting [3] was in the range of 25 to 50 µM.

Consider `Cc1nn(-c2nc(C3=CCC(C)CC3)c(SC(C)C)s2)c(C(=O)O)c1-c1cccc(F)c1` (stereo not shown) [Compound B4, 4-(3-fluorophenyl)-1-(5-(isopropylthio)-4-(4-methylcyclohex-1-en-1-yl)thiazol-2-yl)-3-methyl-1H-pyrazole-5-carboxylic acid], for which the EC50 under setting [3] fell in the range of 1 to 5 µM.

As to `Cc1nn(-c2nc(C3=CCC(C)(C)CC3)c(SC(C)C)s2)c(C(=O)O)c1-c1cccc(F)c1` [Compound B6, 1-(4-(4,4-dimethylcyclohex-1-en-1-yl)-5-(isopropylthio)thiazol-2-yl)-4-(3-fluorophenyl)-3-methyl-1H-pyrazole-5-carboxylic acid], the EC50 under setting [3] is less than 1 µM.

As to `Cc1nn(-c2nc(C3=CCC4(CC3)OCCO4)c(SC(C)C)s2)c(C(=O)O)c1-c1cccc(F)c1` [Compound B7, 4-(3-fluorophenyl)-1-(5-(isopropylthio)-4-(1,4-dioxaspiro[4.5]dec-7-en-8-yl)thiazol-2-yl)-3-methyl-1H-pyrazole-5-carboxylic acid], under setting [3], the EC50 lay in the range of 25 to 50 µM.

Consider `Cc1nn(-c2nc(-c3ccc(Cl)c(C(=O)N4CCOCC4)c3)c(SC(C)C)s2)c(C(=O)O)c1-c1cccc(F)c1` [Compound B8, 1-(4-(4-chloro-3-(morpholine-4-carbonyl)phenyl)-5-(isopropylthio)thiazol-2-yl)-4-(3-fluorophenyl)-3-methyl-1H-pyrazole-5-carboxylic acid], for which the EC50 under setting [3] is more than 40 µM.

Take `Cc1cc(-c2cn(-c3nc(-c4ccc(Cl)c(Cl)c4)c(SC(C)C)s3)nc2C)cc(C)n1` [Compound B9, 4-(3,4-dichlorophenyl)-2-(4-(2,6-dimethylpyridin-4-yl)-3-methyl-1H-pyrazol-1-yl)-5-(isopropylthio)thiazole]: under “BJAB (malignant human B-cell-line) cell proliferation, EC50”, the BJAB entry is given as “A, C, L”.

Consider `Cc1nn(-c2nc(-c3ccc(C(F)(F)F)cc3)c(SC(C)C)s2)c(C)c1-c1cccc(F)c1` [Compound B10, 2-(4-(3-fluorophenyl)-3,5-dimethyl-1H-pyrazol-1-yl)-5-(isopropylthio)-4-(4-(trifluoromethyl)phenyl)thiazole], for which, under setting [3], the EC50 was more than 40 µM.

Take `Cc1nn(-c2nc(N3CCCCC3)c(SC(C)C)s2)c(C(=O)O)c1-c1cccc(F)c1` [Compound B11, 4-(3-fluorophenyl)-1-(5-(isopropylthio)-4-(piperidin-1-yl)thiazol-2-yl)-3-methyl-1H-pyrazole-5-carboxylic acid]: the EC50 under setting [3] lay within 10 to 25 µM.

Turning to `Cc1nn(-c2nc(N3CCC(C(F)(F)F)CC3)c(SC(C)C)s2)c(C(=O)O)c1-c1cccc(F)c1` [Compound B12, 4-(3-fluorophenyl)-1-(5-(isopropylthio)-4-(4-(trifluoromethyl)piperidin-1-yl)thiazol-2-yl)-3-methyl-1H-pyrazole-5-carboxylic acid], under setting [3], the EC50 was less than 1 µM.

Regarding `COc1nn(-c2nc(-c3ccc(C(F)(F)F)cc3)c(SC(C)C)s2)c(C(=O)O)c1-c1cccc(F)c1` [Compound B13, 4-(3-fluorophenyl)-1-(5-(isopropylthio)-4-(4-(trifluoromethyl)phenyl)thiazol-2-yl)-3-methoxy-1H-pyrazole-5-carboxylic acid], the EC50 under setting [3] is 1 to 5 µM.

`Cc1nn(-c2nc(N3CCOCC3)c(SC(C)C)s2)c(C(=O)O)c1-c1cccc(F)c1` [Compound B14, 4-(3-fluorophenyl)-1-(5-(isopropylthio)-4-morpholinothiazol-2-yl)-3-methyl-1H-pyrazole-5-carboxylic acid]: under setting [3], the EC50 was more than 40 µM.

On to `CC(C)Sc1sc(-n2nc(O)c(-c3cccc(F)c3)c2C(=O)O)nc1-c1ccc(C(F)(F)F)cc1` [Compound B15, 4-(3-fluorophenyl)-3-hydroxy-1-(5-(isopropylthio)-4-(4-(trifluoromethyl)phenyl)thiazol-2-yl)-1H-pyrazole-5-carboxylic acid], for which the EC50 under setting [3] was more than 20 µM.

In the case of `Cc1nn(-c2nc(-c3ccc(Cl)c(Cl)c3)n(CC(C)C)n2)c(C(=O)O)c1-c1cccc(F)c1` [Compound B16, 1-(5-(3,4-dichlorophenyl)-1-isobutyl-1H-1,2,4-triazol-3-yl)-4-(3-fluorophenyl)-3-methyl-1H-pyrazole-5-carboxylic acid], the EC50 under setting [3] was more than 20 µM.

`Cc1nn(-c2nc(-c3ccc(Cl)c(Cl)c3)nn2CC(C)C)c(C(=O)O)c1-c1cccc(F)c1` [Compound B17, 1-(3-(3,4-dichlorophenyl)-1-isobutyl-1H-1,2,4-triazol-5-yl)-4-(3-fluorophenyl)-3-methyl-1H-pyrazole-5-carboxylic acid]: under setting [3], the EC50 is more than 20 µM.

Consider `Cc1nn(-c2nc(N3CCC(F)(F)CC3)c(SC(C)C)s2)c(C(=O)O)c1-c1cccc(F)c1` [Compound B18, 1-(4-(4,4-difluoropiperidin-1-yl)-5-(isopropylthio)thiazol-2-yl)-4-(3-fluorophenyl)-3-methyl-1H-pyrazole-5-carboxylic acid], for which the EC50 under setting [3] lay in the range of 1 to 5 µM.

With `COC(=O)c1c(-c2cccc(F)c2)c(C)nn1-c1nc(C2=CCC(C(F)(F)F)CC2)c(SC(C)C)s1` (stereo not shown) [Compound B20, methyl 4-(3-fluorophenyl)-1-(5-(isopropylthio)-4-(4-(trifluoromethyl)cyclohex-1-en-1-yl)thiazol-2-yl)-3-methyl-1H-pyrazole-5-carboxylate], the EC50 under setting [3] is less than 1 µM.

For the compound `Cc1nn(-c2nc(C3CCC(C(F)(F)F)CC3)cs2)c(C(=O)O)c1-c1cccc(F)c1` (stereo not shown) [Compound B21, 4-(3-fluorophenyl)-3-methyl-1-(4-(4-(trifluoromethyl)cyclohexyl)thiazol-2-yl)-1H-pyrazole-5-carboxylic acid], the EC50 under setting [3] was more than 20 µM.

Consider `Cc1nn(-c2nc(-c3ccc(C(F)(F)F)cc3)c(CC(C)C)s2)c(C(=O)O)c1-c1cccc(F)c1` [Compound B22, 4-(3-fluorophenyl)-1-(5-isobutyl-4-(4-(trifluoromethyl)phenyl)thiazol-2-yl)-3-methyl-1H-pyrazole-5-carboxylic acid], for which the EC50 under setting [3] is less than 1 µM.

Turning to `Cc1nn(-c2nc(N3CCN(CC(F)(F)F)CC3)c(SC(C)C)s2)c(C(=O)O)c1-c1cccc(F)c1` [Compound B23, 4-(3-fluorophenyl)-1-(5-(isopropylthio)-4-(4-(2,2,2-trifluoroethyl)piperazin-1-yl)thiazol-2-yl)-3-methyl-1H-pyrazole-5-carboxylic acid], the EC50 under setting [3] was 5 to 10 µM.

Consider `Cc1nn(-c2nc(N3CCC(C#N)CC3)c(SC(C)C)s2)c(C(=O)O)c1-c1cccc(F)c1` [Compound B24, 1-(4-(4-cyanopiperidin-1-yl)-5-(isopropylthio)thiazol-2-yl)-4-(3-fluorophenyl)-3-methyl-1H-pyrazole-5-carboxylic acid], for which the EC50 under setting [3] lay in the range of 10 to 25 µM.

Values taken from patent US20210278408A1, “METHODS OF TREATMENT OF CANCER WITH SUBSTITUTED PYRROLE AND PYRAZOLE COMPOUNDS AND DIAGNOSIS OF CANCERS SUSCEPTIBLE TO TREATMENT WITH SUBSTITUTED PYRROLE AND PYRAZOLE COMPOUNDS” (Bantam Pharmaceutical, LLC, priority 2018, published 2021).
